Measurements: patent US12492193B2, “Pyrazole derivatives for the treatment of cystic fibrosis” (Fondazione Istituto Italiano Di Tecnologia, priority 2017, dated 2025)

Target: T1, mutant CFTR (Homo sapiens, UniProt P13569, DEL508-508)
T1 construct: expressed in transfected cells
Test: Fluorescence (HS-YFP) assay for CFTR activity, corrector assay
Format: cell-based
Conditions: CFBE41o- and FRT cells with stable expression of mutant CFTR, 24 h compound treatment
Method in brief: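 CFBE41o- or FRT cells stably expressing mutant CFTR and HS-YFP were exposed to compounds for 24 h (corrector mode), then stimulated 30 min at 37° C with forskolin (20 μM) plus genistein (50 μM). YFP quenching after 100 mM iodide injection; initial slope from exponential fit of final 10 s; EC50 reported.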

T1 sequence (P13569 with tags, fused parts or gaps DEL508-508): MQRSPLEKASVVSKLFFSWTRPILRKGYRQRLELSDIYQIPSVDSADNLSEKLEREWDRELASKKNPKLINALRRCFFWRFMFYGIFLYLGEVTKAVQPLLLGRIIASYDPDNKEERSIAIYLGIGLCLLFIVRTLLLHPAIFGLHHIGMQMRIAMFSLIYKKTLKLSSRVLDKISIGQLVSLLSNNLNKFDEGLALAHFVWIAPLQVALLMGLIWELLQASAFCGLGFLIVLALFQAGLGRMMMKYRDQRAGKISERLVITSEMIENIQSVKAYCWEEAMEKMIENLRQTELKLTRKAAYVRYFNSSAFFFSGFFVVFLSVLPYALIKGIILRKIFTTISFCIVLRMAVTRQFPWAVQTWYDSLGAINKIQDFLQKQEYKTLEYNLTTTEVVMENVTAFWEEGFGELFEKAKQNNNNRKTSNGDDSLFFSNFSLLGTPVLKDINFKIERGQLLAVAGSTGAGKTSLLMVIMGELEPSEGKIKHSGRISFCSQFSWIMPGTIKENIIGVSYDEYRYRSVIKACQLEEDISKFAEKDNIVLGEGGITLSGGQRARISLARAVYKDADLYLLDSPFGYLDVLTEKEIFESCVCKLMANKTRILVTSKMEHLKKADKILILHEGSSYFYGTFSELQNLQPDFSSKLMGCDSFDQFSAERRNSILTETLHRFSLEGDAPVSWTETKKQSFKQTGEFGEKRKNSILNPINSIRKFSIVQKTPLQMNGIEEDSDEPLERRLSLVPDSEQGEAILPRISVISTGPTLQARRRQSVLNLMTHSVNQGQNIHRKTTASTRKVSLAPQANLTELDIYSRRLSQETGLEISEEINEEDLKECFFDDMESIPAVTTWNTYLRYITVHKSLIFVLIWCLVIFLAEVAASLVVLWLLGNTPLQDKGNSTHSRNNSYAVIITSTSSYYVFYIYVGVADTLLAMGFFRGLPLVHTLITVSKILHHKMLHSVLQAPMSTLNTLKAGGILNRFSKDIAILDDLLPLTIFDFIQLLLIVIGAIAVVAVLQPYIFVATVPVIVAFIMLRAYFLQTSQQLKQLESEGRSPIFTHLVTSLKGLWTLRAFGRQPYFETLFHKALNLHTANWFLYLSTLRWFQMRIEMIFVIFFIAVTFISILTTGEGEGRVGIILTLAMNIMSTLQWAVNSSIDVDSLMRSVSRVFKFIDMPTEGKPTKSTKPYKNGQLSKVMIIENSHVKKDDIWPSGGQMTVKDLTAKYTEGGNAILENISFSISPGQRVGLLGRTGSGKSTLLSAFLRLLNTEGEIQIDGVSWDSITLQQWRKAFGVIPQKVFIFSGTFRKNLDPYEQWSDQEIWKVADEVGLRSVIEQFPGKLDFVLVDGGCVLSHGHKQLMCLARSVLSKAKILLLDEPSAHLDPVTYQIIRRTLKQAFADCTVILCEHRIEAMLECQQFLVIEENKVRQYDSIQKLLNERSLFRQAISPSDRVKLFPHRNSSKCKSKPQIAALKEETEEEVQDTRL

Row | EC50 [nM] | Structure (SMILES)
1 | < 1000 | Cc1nn(-c2cccc(C(=O)N(C)c3ccc4c(c3)OCO4)c2)c(C(=O)c2ccccc2)c1Cl [compound 119, N-(1,3-benzodioxol-5-yl)-3-(5-benzoyl-4-chloro-3-methyl-pyrazol-1-yl)-N-methyl-benzamide]
2 | > 2000 | Cc1nn(-c2cccc(C(=O)N(C)c3ccc4c(c3)OCO4)c2)c(C)c1C(=O)O [compound 048, 1-[3-[1,3-Benzodioxol-5-yl(methyl)carbamoyl]phenyl]-3,5-dimethyl-pyrazole-4-carboxylic acid]
3 | < 1000 | CN(C(=O)c1cccc(-n2nc(C(F)(F)F)cc2OCC23CC(C(=O)O)(C2)C3)c1)c1ccc2c(c1)OC(F)(F)O2 [compound 255, 3-[[2-[3-[(2,2-Difluoro-1,3-benzodioxol-5-yl)-methyl-carbamoyl]phenyl]-5-(trifluoromethyl)pyrazol-3-yl]oxymethyl]bicyclo[1.1.1]pentane-1-carboxylic acid]
4 | > 2000 | Cc1nn(-c2cccc(C(=O)Nc3ccc4c(c3)OC(F)(F)C(F)(F)O4)c2)c(C)c1Cl [Int-005, 3-(4-Chloro-3,5-dimethyl-pyrazol-1-yl)-N-(2,2,3,3-tetrafluoro-1,4-benzodioxin-6-yl)benzamide]

Continued, compound first:

Row | Structure (SMILES) | EC50 [nM]
5 | CN(C(=O)c1cccc(-n2nc(C(F)(F)F)cc2-c2ccc(Cl)s2)c1)c1ccc2c(c1)OCO2 [compound 164, N-(1,3-Benzodioxol-5-yl)-3-[5-(5-chloro-2-thienyl)-3-(trifluoromethyl)pyrazol-1-yl]-N-methyl-benzamide] | < 1000
6 | Cc1nn(-c2cccc(C(=O)N(C)c3ccc4c(c3)COC4)c2)c(C)c1Cl [compound 057] | 1000 to 2000
7 | Cc1nn(-c2cccc(C(=O)Nc3ccc4c(c3)NCCO4)c2)c(C)c1Cl [Int-016, 3-(4-Chloro-3,5-dimethyl-pyrazol-1-yl)-N-(3,4-dihydro-2H-1,4-benzoxazin-6-yl)benzamide] | > 2000
8 | Cc1nc2ccc(NC(=O)c3cccc(-n4nc(C(F)(F)F)c(Cl)c4C4CC4)c3)cc2o1 [Int-136, 3-[4-Chloro-5-cyclopropyl-3-(trifluoromethyl)pyrazol-1-yl]-N-(2-methyl-1,3-benzoxazol-6-yl)benzamide] | < 1000
9 | Cc1nn(-c2cccc(C(=O)N(C)c3cc4c(cc3Cl)OCCO4)c2)c(C)c1Cl [compound 032, N-(6-chloro-2,3-dihydro-1,4-benzodioxin-7-yl)-3-(4-chloro-3,5-dimethyl-pyrazol-1-yl)-N-methyl-benzamide] | < 1000
10 | Cc1nc2ccc(N(C)C(=O)c3cccc(-n4nc(C(F)(F)F)cc4OCc4ccc(C(=O)OC(C)(C)C)cc4)c3)cc2o1 [compound 188, Tert-butyl 4-[[2-[3-[methyl-(2-methyl-1,3-benzoxazol-6-yl)carbamoyl]phenyl]-5-(trifluoromethyl)pyrazol-3-yl]oxymethyl]benzoate] | < 1000
11 | Cc1cc(CO)n(-c2cccc(C(=O)N(C)c3ccc4c(c3)OCO4)c2)n1 [compound 070, N-(1,3-Benzodioxol-5-yl)-3-[5-(hydroxymethyl)-3-methyl-pyrazol-1-yl]-N-methyl-benzamide] | > 2000
12 | Cc1nn(-c2cccc(S(=O)(=O)N(C)c3ccc4c(c3)OC(F)(F)O4)c2)c(C)c1Cl [compound 035, 3-(4-Chloro-3,5-dimethyl-pyrazol-1-yl)-N-(2,2-difluoro-1,3-benzodioxol-5-yl)-N-methyl-benzenesulfonamide] | > 2000
13 | Cc1nc2ccc(N(C)C(=O)c3cccc(-n4nc(C(F)(F)F)c(Cl)c4OCc4ccc(C(=O)OC(C)(C)C)cc4)c3)cc2o1 [compound 190, Tert-butyl 4-[[4-chloro-2-[3-[methyl-(2-methyl-1,3-benzoxazol-6-yl)carbamoyl]phenyl]-5-(trifluoromethyl)pyrazol-3-yl]oxymethyl]benzoate] | < 1000
14 | CN(C(=O)c1cccc(-n2nc(C(F)(F)F)cc2-c2ccco2)c1)c1ccc2c(c1)OCO2 [compound 147, N-(1,3-Benzodioxol-5-yl)-3-[5-(2-furyl)-3-(trifluoromethyl)pyrazol-1-yl]-N-methyl-benzamide] | < 1000
